For test [1], the target named is T1, p110 alpha (Homo sapiens, UniProt P42336).
T1 construct: purchased Upstate Group, Millipore; Dundee, UK
Description: PI3K isoform inhibition assay, p110 alpha (delta/alpha selectivity). The test is classed as biochemical. Conditions: delta/alpha selectivity ratio. As to the method: (§1) PI3K enzymatic activity was assayed by measuring the amount of product phosphatidylinositol 3,4,5-phosphate (PIP3) formed from substrate 4,5 phosphatidylinositol 4,5-phosphate (PIP2) using a fluorescence polarization displacement assay. The decrease in fluorescence polarization of a fluorescent PIP3 probe is measured as it is displaced from a PIP3-binding protein GRP-1detector by PI3K-catalyzed product. Assays were conducted in 384-well black Proxiplates in the presence of 10 mM Tris (pH 7.5), 50 mM NaCl, 4 mM MgCl2, 5% glycerol, 25 μM ATP, 10 μM PIP2 (Echelon Biosciences), 0.05% 3-[(3-cholamidopropyl)dimethylammonio]-1-propanesulfonate, 1 mM dithiothreitol, and 2% DMSO. The kinase reactions were initiated by the addition of 40 ng/mL p110α/p85α, 300 ng/mL p110β/p85α, 40 ng/mL p110γ, or 40 ng/mL p110δ/p85α (Upstate Group, Millipore; Dundee, UK), and 10 μM PIP2 (Echelon Biosciences) to the wells. The reactions were stopped at timepoints that yielded a fixed change in fluorescence polarization consistent with initial rate conditions (typically 30 minutes), by the addition of 12.5 mM EDTA, 100 nM GRP-1 detector, and 5 nM tetramethylrhodamine-labeled PIP3 (TAMRA-PIP3; Echelon Biosciences). After 60 minutes of incubation at room temperature to allow equilibration of labeled and unlabeled PIP3 binding, the parallel and perpendicular components of the fluorescence emissions from each sample were measured at an excitation wavelength of 530 nm and an emission wavelength of 590 nm using an Envision fluorescent plate reader with a rhodamine filter (PerkinElmer Life and Analytical Sciences; Wellesley, Mass.). The assay is capable of detecting 0.1-2.0 μM PIP3 product. The IC50 values were obtained by fitting the dose-dependent inhibition data to a 4-parameter equation using Assay Explorer software (MDL, San Ramon, Calif.).
Alternatively, inhibition of PI3K was determined in a radiometric assay using purified, recombinant enzyme and ATP at a concentration of 1 uM. The Formula I compound was serially diluted in 100% DMSO. The kinase reaction was incubated for 1 h at room temperature, and the reaction was terminated by the addition of PBS. IC50 values were subsequently determined using sigmoidal dose-response curve fit (variable slope).
The same protocol may be used to establish IC50 values for p110α (alpha) PI3K binding.
(§2) Recombinant PI3K p110 isoforms alpha, beta, and delta may be prepared and purified according to US 2008/0275067 from recombinant PI3K heterodimeric complexes consisting of a p110 catalytic subunit and a p85 regulatory subunit overexpressed using the BAC-TO-BAC® HT baculovirus expression system (GIBCO/BRL), and then purified for use in biochemical assays. The four Class I PI 3-kinases are cloned into baculovirus vectors as follows:
p110 alpha: Similar to the method used for p110 delta, described above, a FLAG™-tagged version of p110 alpha (Volinia et al (1994) Genomics, 24(3):427-77) was subcloned in BamH1-HindIII sites of pFastbac HTb (Life Technologies) such that the clone was in frame with the His tag of the vector.

Test [2] deals with T2, p110 delta (Homo sapiens, UniProt O00329).
T2 construct: purchased Upstate Group, Millipore; Dundee, UK
T2 sequence (O00329 whole entry): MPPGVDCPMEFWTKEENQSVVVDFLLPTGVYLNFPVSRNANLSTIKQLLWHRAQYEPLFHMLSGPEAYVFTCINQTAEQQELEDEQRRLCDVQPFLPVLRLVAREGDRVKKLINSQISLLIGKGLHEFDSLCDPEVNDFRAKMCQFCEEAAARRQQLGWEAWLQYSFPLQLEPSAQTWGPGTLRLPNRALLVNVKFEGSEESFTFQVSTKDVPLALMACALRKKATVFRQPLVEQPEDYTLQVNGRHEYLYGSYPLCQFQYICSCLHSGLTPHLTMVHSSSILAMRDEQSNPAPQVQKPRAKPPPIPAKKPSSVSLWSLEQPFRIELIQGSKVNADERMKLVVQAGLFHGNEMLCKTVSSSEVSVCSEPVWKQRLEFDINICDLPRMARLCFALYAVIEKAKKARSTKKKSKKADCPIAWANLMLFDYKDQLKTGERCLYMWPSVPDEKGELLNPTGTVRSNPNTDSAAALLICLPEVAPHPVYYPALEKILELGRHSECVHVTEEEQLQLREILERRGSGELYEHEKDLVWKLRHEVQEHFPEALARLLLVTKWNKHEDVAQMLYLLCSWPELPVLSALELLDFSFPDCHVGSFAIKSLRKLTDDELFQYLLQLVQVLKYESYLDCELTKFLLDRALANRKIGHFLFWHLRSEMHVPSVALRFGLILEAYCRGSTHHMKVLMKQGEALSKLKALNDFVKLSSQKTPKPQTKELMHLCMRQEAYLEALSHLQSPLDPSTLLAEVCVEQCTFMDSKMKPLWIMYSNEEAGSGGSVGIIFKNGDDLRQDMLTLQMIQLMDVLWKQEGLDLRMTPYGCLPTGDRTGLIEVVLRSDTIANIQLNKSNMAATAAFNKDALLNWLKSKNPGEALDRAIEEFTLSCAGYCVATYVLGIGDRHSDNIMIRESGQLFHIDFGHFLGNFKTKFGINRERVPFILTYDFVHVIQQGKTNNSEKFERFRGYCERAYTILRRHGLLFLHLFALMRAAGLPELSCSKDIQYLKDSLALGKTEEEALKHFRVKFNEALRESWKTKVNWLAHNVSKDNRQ
T2 sequence (P27986 whole entry partner): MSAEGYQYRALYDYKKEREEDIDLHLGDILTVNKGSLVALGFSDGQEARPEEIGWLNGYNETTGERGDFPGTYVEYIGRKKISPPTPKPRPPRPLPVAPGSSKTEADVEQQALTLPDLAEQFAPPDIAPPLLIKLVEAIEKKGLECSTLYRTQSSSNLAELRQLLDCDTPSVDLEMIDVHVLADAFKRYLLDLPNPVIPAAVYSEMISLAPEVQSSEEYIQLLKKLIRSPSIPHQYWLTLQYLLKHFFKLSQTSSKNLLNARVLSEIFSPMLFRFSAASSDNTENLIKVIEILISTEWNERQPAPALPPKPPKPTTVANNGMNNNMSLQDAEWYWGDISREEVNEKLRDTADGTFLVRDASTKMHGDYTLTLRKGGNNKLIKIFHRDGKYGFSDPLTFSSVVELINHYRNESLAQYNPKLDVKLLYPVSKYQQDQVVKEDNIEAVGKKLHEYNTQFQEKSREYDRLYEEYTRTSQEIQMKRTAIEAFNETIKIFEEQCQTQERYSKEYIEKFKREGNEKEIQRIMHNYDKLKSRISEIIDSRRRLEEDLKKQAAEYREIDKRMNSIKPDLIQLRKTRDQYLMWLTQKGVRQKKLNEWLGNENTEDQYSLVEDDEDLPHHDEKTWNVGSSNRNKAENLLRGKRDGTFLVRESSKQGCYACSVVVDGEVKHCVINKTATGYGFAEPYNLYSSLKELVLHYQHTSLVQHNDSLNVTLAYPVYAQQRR
Description: PI3K isoform inhibition assay (fluorescence polarization), p110 delta. The test is classed as biochemical. As to conditions: p110 delta binding IC50, selected compounds from Table 1. Here is the method: as §1, with “Calif.). […]” for “Calif.).”
as §2
p110 delta: A FLAG™-tagged (Eastman Kodak Co., U.S. Pat. No. 4,703,004; U.S. Pat. No. 4,782,137; U.S. Pat. No. 4,851,341) version of human p110.delta (Chantry et al., J. Biol. Chem. (1997) 272:19236-41) is subcloned using standard recombinant DNA techniques into the BamHI-XbaI site of the insect cell expression vector pFastbac HTb (Life Technologies, Gaithersburg, Md.), such that the clone is in frame with the His tag of the vector.
On the technique in general: Polarisation of emitted light reports the rotation of a fluorescent probe.

Test [3] deals with CD69 expression on CD20 positive cells in human whole blood stimulated by anti-IgM. Description: CD69 Whole Blood Assay. The test is classed as cell-based. As to conditions: concentration decreasing by 50% the percent CD69 positive cells that are also CD20 positive, 20 hours. The text has this:
Human blood is obtained from healthy volunteers, with the following restrictions: 1 week drug-free, non-smokers. Blood (approximately 20 mls to test 8 compounds) is collected by venipuncture into Vacutainer tubes with sodium heparin.
Cynomolgus monkey blood is obtained courtesy of the LAT group from monkeys not previously exposed to, or after a washout period from, chemical dosing. Additional cyno blood draws may be collected during the course of pharmacokinetic or toxicology studies. Blood (25-30 mls for naïve monkeys or 3-4 mls from monkeys on studies requiring repeated draws) is collected by venipuncture into Vacutainer tubes with sodium heparin.
Solutions of Formula I compounds at 1000 or 2000 μM in PBS (20×), are diluted by three-fold serial dilutions in 10% DMSO in PBS for a nine point dose-response curve. An aliquot of 5.5 μl of each compound is added in duplicate to a 2 ml 96-well plate; 5.5 μl of 10% DMSO in PBS is added as control and no-stimulus wells. Human whole blood—HWB (100 μl) is added to each well. After mixing the plates are incubated at 37° C., 5% CO2, 100% humidity for 30 minutes. Goat F(ab′)2 anti-human IgM (10 μl of a 500 μg/ml solution, 50 μg/ml final) is added to each well (except the no-stimulus wells) with mixing and the plates are incubated for an additional 20 hours. At the end of the 20 hour incubation, samples are incubated with fluorescent labeled antibodies for 30 minutes, at 37° C., 5% CO2, 100% humidity. Include induced control, unstained and single stains for compensation adjustments and initial voltage settings. Samples are then lysed with Pharmingen Lyse according to the manufacturer's instructions. Samples are then transferred to a 96 well plate suitable to be run on the AMS 96 well system on the BD Calibur FACs machine. Data acquired and Mean Fluorescence Intensity values were obtained using Cell Quest Software. Results are initially analyzed by FACS analysis software (Flow Jo). […] The […] values are calculated by ActivityBase using Xlfit version 3, equation 201.

The IC50 is the concentration needed to halve the response being measured. Higher therefore signals lower potency.

T1 sequence (P42336 whole entry): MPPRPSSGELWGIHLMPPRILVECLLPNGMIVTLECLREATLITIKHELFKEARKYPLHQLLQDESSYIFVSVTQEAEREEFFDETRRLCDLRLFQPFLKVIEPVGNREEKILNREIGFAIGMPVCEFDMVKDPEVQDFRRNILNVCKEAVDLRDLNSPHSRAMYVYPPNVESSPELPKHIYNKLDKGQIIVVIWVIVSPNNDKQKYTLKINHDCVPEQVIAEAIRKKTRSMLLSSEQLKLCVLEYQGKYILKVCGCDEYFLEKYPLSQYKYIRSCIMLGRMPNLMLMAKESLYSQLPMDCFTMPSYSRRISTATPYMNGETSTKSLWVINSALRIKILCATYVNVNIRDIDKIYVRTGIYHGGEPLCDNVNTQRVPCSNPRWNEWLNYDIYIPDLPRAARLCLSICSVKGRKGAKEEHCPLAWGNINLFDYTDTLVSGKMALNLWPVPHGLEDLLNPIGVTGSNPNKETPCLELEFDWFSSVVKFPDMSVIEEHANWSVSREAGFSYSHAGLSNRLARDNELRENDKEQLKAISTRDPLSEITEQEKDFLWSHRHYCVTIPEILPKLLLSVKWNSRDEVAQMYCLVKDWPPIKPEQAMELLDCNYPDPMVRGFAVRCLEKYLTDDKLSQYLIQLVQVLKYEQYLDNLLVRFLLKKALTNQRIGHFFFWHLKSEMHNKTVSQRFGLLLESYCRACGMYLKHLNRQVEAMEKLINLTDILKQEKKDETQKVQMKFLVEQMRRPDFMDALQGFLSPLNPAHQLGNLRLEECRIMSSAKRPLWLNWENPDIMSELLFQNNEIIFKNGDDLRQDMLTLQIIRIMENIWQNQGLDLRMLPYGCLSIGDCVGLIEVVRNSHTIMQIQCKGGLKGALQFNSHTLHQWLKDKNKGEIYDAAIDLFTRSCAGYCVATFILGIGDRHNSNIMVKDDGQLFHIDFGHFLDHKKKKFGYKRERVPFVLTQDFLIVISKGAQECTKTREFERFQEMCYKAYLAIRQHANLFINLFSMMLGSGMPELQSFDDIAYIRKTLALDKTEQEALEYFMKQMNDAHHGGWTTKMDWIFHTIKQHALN
T1 sequence (P27986 whole entry partner): as the sequence (P27986 whole entry partner) above

On to `CC(Nc1ncnc2[nH]cnc12)c1nc2ccccc2n1-c1ccccc1` (racemic) [Example 102, N-(1-(1-phenyl-1H-benzo[d]imidazol-2-yl)ethyl)-9H-purin-6-amine], for which the “IC50 p110 alpha/IC50 p110 delta (greater than or equal to, ≧)” value (“IC50 p110 alpha/IC50 p110 delta” below) in test [1] is given as at least 230. This compound also displayed an IC50 in test [2] of 9.1 nM.

With `CC(Nc1ncnc2[nH]cnc12)c1sc2ccccc2c1-c1ccccc1` (centres unmarked) [Example 101, N-(1-(3-phenylbenzo[b]thiophen-2-yl)ethyl)-9H-purin-6-amine], the “IC50 p110 alpha/IC50 p110 delta” value in test [1] was at least 40. Also, the IC50 in test [2] was found to be 52.3 nM.

`CC(Nc1ncnc2[nH]cnc12)c1oc2ccccc2c1-c1ccccc1` (centres unmarked) [Example 103, N-(1-(3-phenylbenzofuran-2-yl)ethyl)-9H-purin-6-amine]: in test [1], the “IC50 p110 alpha/IC50 p110 delta” value is on record as at least 64. Besides, the IC50 in test [2] was 33 nM.

In the case of `Nc1ncnc2c1ncn2Cc1nc2ccccc2n1-c1ccccc1` [Example 106, 9-((1-phenyl-1H-benzo[d]imidazol-2-yl)methyl)-9H-purin-6-amine], the “IC50 p110 alpha/IC50 p110 delta” value in test [1] is at least 11. The compound also registered an IC50 in test [2] of 189 nM.

Turning to `C[C@H](Nc1ncnc2[nH]cnc12)c1nc2cccnc2n1-c1ccccc1` [Example 114, (S)—N-(1-(3-phenyl-3H-imidazo[4,5-b]pyridin-2-yl)ethyl)-9H-purin-6-amine], the “IC50 p110 alpha/IC50 p110 delta” value in test [1] is at least 104. The IC50 in test [3] was 83.4 nM; in test [2], 20.1 nM.

For `CC(=O)N1CCC(n2c([C@H](C)Nc3ncnc4[nH]cnc34)nc3ccccc32)CC1` [Example 115, (S)-1-(4-(2-(1-(9H-purin-6-ylamino)ethyl)-1H-benzo[d]imidazol-1-yl)piperidin-1-yl)ethanone], in test [1], the “IC50 p110 alpha/IC50 p110 delta” value is at least 153. In test [2], this compound yielded a 50% inhibitory concentration (IC50) of 13.7 nM.

On to `CC[C@H](Nc1ncnc2[nH]cnc12)c1nc2ccccc2n1-c1ccccc1` [Example 119, (S)—N-(1-(1-phenyl-1H-benzo[d]imidazol-2-yl)propyl)-9H-purin-6-amine], for which, in test [1], the “IC50 p110 alpha/IC50 p110 delta” value was at least 1320. In test [2], this compound had an IC50 of 1.59 nM.

Turning to `C[C@H](Nc1ncnc2[nH]cnc12)c1nc2c(Cl)cccc2n1-c1ccccc1` [Example 120, (S)—N-(1-(4-chloro-1-phenyl-1H-benzo[d]imidazol-2-yl)ethyl)-9H-purin-6-amine], in test [1], the “IC50 p110 alpha/IC50 p110 delta” value is reported as at least 470. The same compound registered an IC50 in test [2] of 4.46 nM.

Turning to `C[C@H](Nc1ncnc2[nH]cnc12)c1nc2ccc(F)cc2n1-c1ccccc1` [Example 123, (S)—N-(1-(6-fluoro-1-phenyl-1H-benzo[d]imidazol-2-yl)ethyl)-9H-purin-6-amine], the “IC50 p110 alpha/IC50 p110 delta” value in test [1] is at least 2459. Moreover, the IC50 in test [3] is 29.1 nM; in test [2], 0.854 nM.

In turn, `C[C@H](Nc1ncnc2[nH]cnc12)c1nc2cccc(F)c2n1-c1ccccc1` [Example 124, (S)—N-(1-(7-fluoro-1-phenyl-1H-benzo[d]imidazol-2-yl)ethyl)-9H-purin-6-amine] had an IC50 in test [3] of 67.1 nM.

For `C[C@H](Nc1ncnc2[nH]cnc12)c1nc2ccccc2n1C1CCCOC1` (stereo partly drawn) [Example 128, N-((1S)-1-(1-(tetrahydro-2H-pyran-3-yl)-1H-benzo[d]imidazol-2-yl)ethyl)-9H-purin-6-amine], the “IC50 p110 alpha/IC50 p110 delta” value in test [1] was at least 58. Moreover, the IC50 in test [2] worked out at 36.2 nM.

On to `C[C@H](Nc1ncnc2[nH]cnc12)c1nc2ccccc2n1C1CCN(C2COC2)CC1` [Example 129, (S)—N-(1-(1-(1-(oxetan-3-yl)piperidin-4-yl)-1H-benzo[d]imidazol-2-yl)ethyl)-9H-purin-6-amine], for which the “IC50 p110 alpha/IC50 p110 delta” value in test [1] was at least 33. The compound also came in with a half-inhibitory concentration (IC50) in test [2] of 63.4 nM.

`C[C@H](Nc1ncnc2[nH]cnc12)c1nc2cccc(Cl)c2n1-c1ccccc1` [Example 138, (S)—N-(1-(7-chloro-1-phenyl-1H-benzo[d]imidazol-2-yl)ethyl)-9H-purin-6-amine] had an IC50 in test [3] of 87.6 nM.

On to `C[C@H](Nc1ncnc2sccc12)c1nc2ccccc2n1-c1ccccc1` [Example 143, (S)—N-(1-(1-phenyl-1H-benzo[d]imidazol-2-yl)ethyl)thieno[2,3-d]pyrimidin-4-amine], for which the “IC50 p110 alpha/IC50 p110 delta” value in test [1] is recorded as at least 24. In test [2], this compound returned an IC50 of 87.9 nM.

Consider `CC[C@H](Nc1ncnc2nc[nH]c12)c1nc2ccc(F)cc2n1-c1ccccc1` [Example 160, (S)—N-(1-(6-fluoro-1-phenyl-1H-benzo[d]imidazol-2-yl)propyl)-7H-purin-6-amine], for which the IC50 in test [3] was found to be 179 nM.

Source of the values: US8653089B2, “Heterocyclic compounds and methods of use” (F. Hoffmann-La Roche AG, priority 2011, dated 2014).
